Experiment in all cases: NCI anticancer screen, dose series, 48 h
Experiment [1] deals with BT-549 breast.
Experiment [2] deals with HCT-15 colon.
The test system of experiment [3] is MALME-3M melanoma.
Experiment [4] deals with MDA-MB-435.
Experiment [5] has as its system NCI-H226 lung.
The subject of experiment [6] is NCI-H460 lung.
The subject of experiment [7] is NCI-H522 lung.
The test system of experiment [8] is PC-3 prostate.
The subject of experiment [9] is SF-295 CNS.
Experiment [10] concerns U251 CNS.

SMILES strings stand for the structures. “And” between values parts separate entries of the source, which are not always exact repeats. Equal entries are not always repeated.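 In this assay, cells in 96-well plates receive the compound at five concentrations for 48 hours. Endpoints are linearly interpolated between the surrounding concentrations. At the GI50, growth is halved. TGI denotes the concentration required for complete inhibition of growth.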

In the case of `Cc1ccc(NC(=O)N2CCCCC2)cc1[N+](=O)[O-]`, the GI50 in [1], in experiment [2], in experiment [3], in experiment [4], in experiment [5] and in [6] was over 100 µM throughout. In addition, the GI50 in experiment [7] was 87.1 µM; in experiment [8], over 100 µM; in [9], over 100 µM; in experiment [10], over 100 µM. Further, the TGI in [1], in [2], in experiment [3], in [4], in experiment [5] and in experiment [6] was over 100 µM throughout. Besides, the TGI in experiment [7], in experiment [8], in experiment [9] and in [10] was over 100 µM each time.
In the case of `CNC1=CC(=O)C2=C(C1=O)C1C3=C(C(=O)C(Br)=C(OC)C3=O)C2c2ccccc21` (stereo not given), the GI50 in experiment [1] is 1.6 µM; in [2], 2.06 µM; in experiment [3], 6.84 µM; in experiment [4], 6.92 µM; in [5], 6.66 µM; in [6], 11.1 µM. The GI50 in experiment [7] was 1.3 µM; in experiment [8] it was 1.08 µM; in [9] it was 2.85 µM; in experiment [10], 1.41 µM. The TGI in experiment [1] is 5.3 µM; in [2], 10.5 µM; in experiment [3], 17.9 µM; in experiment [4], 17.1 µM; in experiment [5] it was 14.7 µM; in experiment [6], over 50 µM. In addition, the TGI in [7] worked out at 2.98 µM; in experiment [8], 2.75 µM; in [9], 10 µM; in experiment [10], 4.26 µM.
For the compound `CCOc1ccc(NC(=O)c2cc3ccccc3cc2O)cc1`, the GI50 was 42 µM in experiment [1]; over 100 µM in experiment [2]; 39.7 µM in experiment [3]; over 100 µM in experiment [4]; 64.3 µM in experiment [5]; over 100 µM in [6]. In addition, the GI50 in experiment [7] was 59.1 µM; in experiment [8] it was over 100 µM; in [9], 34.6 µM; in experiment [10] it was 45.9 µM. Further, the TGI in experiment [1], in experiment [2], in experiment [3], in experiment [4], in experiment [5] and in experiment [6] was over 100 µM in each case. The TGI in experiment [7], in [8], in experiment [9] and in [10] was over 100 µM each time.
For the compound `N=C1N=C(N)S/C1=C\c1ccc2ncccc2c1`, the GI50 in experiment [1], in experiment [2], in experiment [3], in experiment [4], in experiment [5] and in [6] was over 25 µM each time. In addition, the GI50 in [7], in experiment [8], in [9] and in [10] was over 25 µM in each case. Also, the TGI in experiment [1], in experiment [2], in experiment [3], in experiment [4], in experiment [5] and in experiment [6] was over 25 µM in each case. For the same compound, the TGI in experiment [7], in [8], in [9] and in experiment [10] was over 25 µM each time.
`CC(C)c1ccc(/C=N/N=C(N)N)cc1`: the GI50 in experiment [1] is 13.2 µM; in experiment [2] it was 4.19 µM; in experiment [3], 5.56 µM; in experiment [4], 1.63 µM; in [5], 12.2 µM; in experiment [6], 3.89 µM. Moreover, the GI50 is 3.22 µM in experiment [7], 4.25 µM in [8], 8.13 µM in [9] and 4.63 µM in experiment [10]. Besides, the TGI amounted to 30 µM in experiment [1]; 16.8 µM in experiment [2]; 21.1 µM in experiment [3]; 4.72 µM in [4]; 26.3 µM in [5]; 14.4 µM in experiment [6]. For the same compound, the TGI stood at 12.9 µM in [7], 18.6 µM in experiment [8], 22.4 µM in [9] and 17 µM in experiment [10].
As for `Clc1ccc(N/N=C(\c2ccccc2)c2ccccn2)nc1`, the GI50 is 0.474 µM in experiment [1]; 0.0505 µM in [2]; 0.0904 µM in [3]; 0.42 µM in experiment [4]; 0.197 µM in experiment [5]; 0.29 µM and 0.171 µM in experiment [6]. The GI50 in experiment [7] is 0.0805 µM; in experiment [8] it was 0.112 µM; in experiment [9] it was 0.506 µM; in [10] it was 0.344 µM. For the same compound, the TGI in experiment [1] was 25 µM and 29.5 µM; in [2], > 38.3 µM and 14.1 µM; in experiment [3], 72.2 µM and 25.7 µM; in experiment [4], over 55.9 µM; in [5], 5.16 µM and 0.736 µM; in experiment [6], > 39.9 µM and 13.6 µM. In addition, the TGI in experiment [7] is 2.77 µM; in experiment [8] it was > 67.8 µM and 28.9 µM; in experiment [9], > 53.6 µM and 17.7 µM; in experiment [10] it was over 68 µM.
